From US7378406B2, “Use of antiprogestins for prophylaxis and treatment of hormone-dependent diseases” (Schering AG, priority 2000, dated 2008) come the findings set out here.

The test system of data set [1] is NMU-induced mammary carcinoma of the rat. The experiment in a line: NMU-induced breast cancer model in rat (therapy experiment). Format: in vivo, rat (female Sprague-Dawley). Conditions: 4 weeks. As for the experimental part:
Tumors were induced by a single intravenous injection of NMU (nitrosomethylurea, 50 mg/kg) in female Sprague-Dawley rats (obtained from Tierzucht Schönwalde, age 50-55 days). Starting 10 days later, rats with at least one established tumor were treated for 4 weeks by: 1) solvent control, 2) ovariectomy at treatment start, 3) antiprogestin (I), 1.0 mg/kg/day, 4) antiprogestin (I), 0.5 mg/kg/day and 5) onapristone, 5 mg/kg/day. As a parameter for growth inhibition the change of tumor area (in % of initial tumor size) determined by weekly caliper measurements was used. For statistical analysis of intergroup differences of mean values the Kruskal-Wallis-test was used.

In data set [2] the test system is DMBA-induced mammary carcinoma of the rat. Nature of the data set: DMBA-induced breast cancer model in rat (therapy experiment/dose-response study). Format: in vivo, rat (female Sprague-Dawley). On the procedure: Immature female Sprague-Dawley rats (49-51 days old; 10 animals/group) were used in this study. Mammary tumors were induced by a single oral administration of 10 mg 7,12-dimethylbenz[a]anthracene (DMBA, Serva/Heidelberg). Rats with at least one established tumor with a size of more than 150 mm^2 were treated for 4 weeks by: 1) solvent control, 2) ovariectomy at treatment start, 3) antiprogestin (I), 0.5 mg/kg s.c., 4) antiprogestin (I), 2 mg/kg s.c., 5) antiprogestin (I), 5 mg/kg s.c., 6) antiprogestin (I), 10 mg/kg s.c., and 7) onapristone, 5 mg/kg, s.c., daily. As a parameter for growth inhibition the change of tumor area (in % with respect to initial tumor size) determined by weekly caliper measurements was used. For statistical analysis of intergroup differences of mean values the Kruskal-Wallis-test was used.

Data set [3] can be described thus: Further endocrine side effects (general statement).
The nature of data set [4]: Bioavailability (general statement). It counts as in vivo. Conditions: oral administration.
The subject of a further data set is T47D breast cancer cells. The experiment in a line: T47D human xenograft (therapy experiment). It counts as in vivo, human xenograft in Fox Chase scid mice. Conditions: 10 mg/kg s.c.; scid mice with estradiol pellets. On the procedure: (§1) Female Fox Chase scid mice (M&B) were supplemented with estradiol pellets (Innovative Research of America). T47D breast cancer cells, obtained from cell culture and suspended in matrigel, were implanted s.c. in the inguinal region of the mice. Treatment was started when the tumors were approximately 25 mm^2 in size. Treatment was continued until progression of the tumors. Experimental groups were: 1) control (vehicle), 2) ovariectomy, 3) antiprogestin (I), 10 mg/kg s.c.Tumor area was determined by caliper measurements. The Kruskal Wallis test was used for statistical analysis of intergroup differences of mean values.
A general note: In xenograft studies the graft and the host belong to different species.

For data set [5], the system named is DMBA-induced mammary carcinoma of the rat. Nature of the data set: DMBA-induced breast cancer model in rat (prevention experiment). It counts as in vivo, rat (female Sprague-Dawley). Conditions: 6 days/week, start 20 days after DMBA, end of experiment. On the procedure:
Immature female Sprague-Dawley rats (49-51 days old; 10 animals/group) were used in this study. The carcinogen 7,12-dimethylbenz[a]anthracene (DMBA) was given as a single oral administration (10 mg). Treatment was started 20 days later as followed: 1) solvent control, 2) ovariectomy at treatment start, 3) tamoxifen, 1 mg/kg s.c., 4) antiprogestin (I), 3 mg/kg, s.c., 6 days/week. Rats were examined weekly for breast tumors by palpation. As a parameter for the prophylactic effect the tumor incidence (number of animals/group with tumors in %) was determined. For a further description and evaluation of DMBA and NMU prevention models, see R. G. Metha, European Journal of Cancer 36 (2000), pp. 1275-1282.

Data set [6] concerns NMU-induced mammary carcinoma of the rat. The experiment in a line: NMU-induced breast cancer model in rat (prevention experiment). Format: in vivo, rat (female Sprague-Dawley). Particulars: 3 mg/kg s.c., 6 days/week, start 10 days after NMU; end of experiment, after 27 weeks. On the procedure: Tumors were induced by a single intravenous injection of NMU (nitrosomethylurea, 50 mg/kg) in female Sprague-Dawley rats (obtained from Tierzucht Schonwalde, age 50-55 days). Treatment was started 10 days later as followed: 1) solvent control, 2) ovariectomy at treatment start, 3) tamoxifen, 3 mg/kg s.c., 4) antiprogestin (I), 3 mg/kg, s.c., 5) letrozole, 3 mg/kg s.c., 6) raloxifen, 3 mg/kg s.c., 6 days/week. Rats were examined weekly for breast tumors by palpation. As a parameter for the prophylactic effect the tumor incidence (number of animals/group with tumors in %) was determined. For a further description and evaluation of DMBA and NMU prevention models, see R. G. Metha, European Journal of Cancer 36 (2000), pp. 1275-1282.

A further data set has as its system MCF7 breast cancer cells. Nature of the data set: MCF7 human xenograft (therapy experiment). Format: in vivo, human xenograft in Fox Chase scid mice. Conditions: 10 mg/kg s.c.; scid mice with estradiol pellets. As for the experimental part:
as §1, with “MCF7” for “T47D”, “s.c. Tumor” for “s.c.Tumor”

As for `CN(C)c1ccc([C@H]2C[C@]3(C)[C@@H](CC[C@]3(O)CCCO)[C@@H]3CCC4=CC(=O)CCC4=C32)cc1` [Onapristone, onapristone, reference compound], the “tumor growth inhibition relative to antiprogestin (I) at 0.5 mg/kg” value in data set [1] (5 mg/kg/day) is reported as “distinctly less effective than antiprogestin (I)”. Besides, the “tumor growth inhibition relative to antiprogestin (I)” value in data set [2] (5 mg/kg s.c. daily, 4 weeks) is listed as “distinctly less effective than antiprogestin (I) at comparable doses”.
For `CC(=O)c1ccc([C@H]2C[C@@]3(C)[C@@H](CC[C@@]3(O)C(F)(F)C(F)(F)F)[C@@H]3CCC4=CC(=O)CCC4=C32)cc1` [antiprogestin (I), 11β-(4-acetylphenyl)-17β-hydroxy-17α-(1,1,2,2,2-pentafluoroethyl)-estra-4,9-dien-3-one], the “further endocrine side effects, e.g. androgen, estrogen or antiglucocorticoid activity” value in data set [3] is “only very weak, if present at all”. Also, in data set [4], the bioavailability entry was “high”. The “tumor growth (tumor area)” value in the data set with T47D breast cancer cells is listed as “inhibition of tumor growth, almost comparable to the effect of conventional estrogen deprivation therapy (ovariectomy)”; in the data set on MCF7 breast cancer cells, “inhibition of tumor growth, almost comparable to the effect of conventional estrogen deprivation therapy (ovariectomy)”. Besides, the “tumor incidence (number of animals/group with tumors in %)” value in data set [5] (3 mg/kg s.c., after 22 weeks) was found to be 10%; in data set [6] it was 10%. The “tumor growth (change of tumor area) compared with the control” value is listed as “significant inhibition of tumor growth” in data set [1] (0.5 mg/kg/day); “significant inhibition of tumor growth” in data set [1] (1.0 mg/kg/day); “did not significantly prevent the tumor from growing” in data set [2] (0.5 mg/kg s.c. daily, 4 weeks); “significant inhibition of tumor growth” in data set [2] (doses of or above 2 mg/kg s.c. daily, 4 weeks). The “rats with complete tumor regression” value in data set [2] (2 mg/kg s.c. daily, 4 weeks) turned out to be 50%. Besides, the “tumor growth (change of tumor area), dose-response” value is listed as “maximal growth inhibition” in data set [2] (2 mg/kg s.c. daily, 4 weeks) and “comparable to that of 2 mg/kg” in data set [2] (10 mg/kg s.c. daily, 4 weeks (highest dose)).
Regarding `CC/C(=C(\c1ccccc1)c1ccc(OCCN(C)C)cc1)c1ccccc1` [tamoxifen, reference compound], the “tumor incidence (number of animals/group with tumors in %)” value in data set [5] (1 mg/kg s.c.) turned out to be 60%.
